# Measured values published in patent US11739098B2 (BRISTOL-MYERS SQUIBB COMPANY, priority 2017, dated 2023).
# Legend:
# Format in all cases: cell-based
# human TLR7 = target: T1, human TLR7 (Homo sapiens, UniProt Q9NYK1); experiment: TLR7 inhibition reporter assay (HEK-Blue cells, SEAP reporter, gardiquimod stimulation); details: HEK-Blue cells overexpressing human TLR7, SEAP reporter, gardiquimod 7.5 μM
# T1 construct: host or cells: HEK-Blue cells (HEK293-derived reporter line)
# T1 sequence (Q9NYK1 27-1049): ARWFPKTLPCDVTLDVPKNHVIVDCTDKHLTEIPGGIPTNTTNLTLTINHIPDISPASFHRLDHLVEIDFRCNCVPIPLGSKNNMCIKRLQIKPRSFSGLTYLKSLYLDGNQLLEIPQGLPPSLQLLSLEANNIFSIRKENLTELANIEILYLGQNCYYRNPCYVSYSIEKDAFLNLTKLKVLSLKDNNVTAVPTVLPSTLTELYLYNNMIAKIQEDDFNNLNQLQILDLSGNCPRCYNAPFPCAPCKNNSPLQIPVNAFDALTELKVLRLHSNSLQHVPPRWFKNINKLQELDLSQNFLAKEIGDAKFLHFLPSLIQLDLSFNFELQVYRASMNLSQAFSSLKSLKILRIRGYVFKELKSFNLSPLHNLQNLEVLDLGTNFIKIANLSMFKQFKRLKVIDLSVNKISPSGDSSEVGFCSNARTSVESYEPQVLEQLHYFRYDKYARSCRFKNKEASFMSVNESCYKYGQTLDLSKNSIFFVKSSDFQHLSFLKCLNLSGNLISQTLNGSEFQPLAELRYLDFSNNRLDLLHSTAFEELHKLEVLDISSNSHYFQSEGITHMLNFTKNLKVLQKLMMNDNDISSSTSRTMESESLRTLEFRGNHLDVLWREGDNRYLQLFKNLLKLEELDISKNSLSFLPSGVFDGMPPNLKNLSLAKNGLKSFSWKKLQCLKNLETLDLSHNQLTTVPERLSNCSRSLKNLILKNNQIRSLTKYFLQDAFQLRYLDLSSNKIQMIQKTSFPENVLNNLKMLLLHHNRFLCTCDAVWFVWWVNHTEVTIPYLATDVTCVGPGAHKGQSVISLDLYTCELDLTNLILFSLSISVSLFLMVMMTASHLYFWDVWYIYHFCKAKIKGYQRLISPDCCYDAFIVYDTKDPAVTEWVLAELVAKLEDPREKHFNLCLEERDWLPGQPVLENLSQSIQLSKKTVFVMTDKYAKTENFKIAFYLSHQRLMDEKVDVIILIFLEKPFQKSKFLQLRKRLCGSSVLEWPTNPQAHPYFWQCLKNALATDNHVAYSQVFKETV
# How it was run: (§1)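 Percent inhibition of agonist-induced SEAP secretion in HEK-Blue cells after 22 h at 37 °C. Stimuli: 7.5 μM gardiquimod, 15.9 μM R848, 5 nM ODN2006 for TLR7, TLR8 and TLR9, added after 30 min compound exposure over a 0.05 nM–50 μM range.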
# human TLR8 = target: T2, human TLR8 (Homo sapiens, UniProt Q9NR97); experiment: TLR8 inhibition reporter assay (HEK-Blue cells, SEAP reporter, R848 stimulation); details: HEK-Blue cells overexpressing human TLR8, SEAP reporter, R848 15.9 μM
# T2 construct: host or cells: HEK-Blue cells (HEK293-derived reporter line)
# T2 sequence (Q9NR97 27-1041): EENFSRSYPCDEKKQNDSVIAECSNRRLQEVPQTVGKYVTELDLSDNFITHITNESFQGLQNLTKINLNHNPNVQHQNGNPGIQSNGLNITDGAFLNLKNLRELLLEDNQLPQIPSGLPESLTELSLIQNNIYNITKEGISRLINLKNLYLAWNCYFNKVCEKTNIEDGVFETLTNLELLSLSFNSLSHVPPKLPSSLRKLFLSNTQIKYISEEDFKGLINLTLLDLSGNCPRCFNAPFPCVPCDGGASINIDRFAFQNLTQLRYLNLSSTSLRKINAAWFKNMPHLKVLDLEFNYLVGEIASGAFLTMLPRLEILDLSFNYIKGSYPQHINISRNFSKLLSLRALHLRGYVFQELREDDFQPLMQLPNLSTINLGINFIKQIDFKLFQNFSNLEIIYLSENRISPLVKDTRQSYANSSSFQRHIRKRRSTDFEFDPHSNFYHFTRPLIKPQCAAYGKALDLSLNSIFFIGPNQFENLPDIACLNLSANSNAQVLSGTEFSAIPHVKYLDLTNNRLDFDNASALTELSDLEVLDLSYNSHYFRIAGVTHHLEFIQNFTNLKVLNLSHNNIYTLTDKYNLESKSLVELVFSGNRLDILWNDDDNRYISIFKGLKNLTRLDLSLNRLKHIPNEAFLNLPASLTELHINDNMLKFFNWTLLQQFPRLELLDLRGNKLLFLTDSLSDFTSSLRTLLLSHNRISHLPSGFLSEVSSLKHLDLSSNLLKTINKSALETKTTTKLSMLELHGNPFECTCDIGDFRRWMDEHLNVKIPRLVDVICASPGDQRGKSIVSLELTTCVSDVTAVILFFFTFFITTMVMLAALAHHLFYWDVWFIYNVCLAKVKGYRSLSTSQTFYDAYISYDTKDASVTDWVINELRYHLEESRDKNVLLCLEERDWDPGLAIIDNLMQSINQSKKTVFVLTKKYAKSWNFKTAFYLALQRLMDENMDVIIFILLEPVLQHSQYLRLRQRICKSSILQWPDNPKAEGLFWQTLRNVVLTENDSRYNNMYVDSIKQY
# How it was run: as §1
# human TLR9 = target: T3, human TLR9 (Homo sapiens, UniProt Q9NR96); experiment: TLR9 inhibition reporter assay (HEK-Blue cells, SEAP reporter, ODN2006 stimulation); details: HEK-Blue cells overexpressing human TLR9, SEAP reporter, ODN2006 5 nM
# T3 construct: host or cells: HEK-Blue cells (HEK293-derived reporter line)
# T3 sequence (Q9NR96 26-1032): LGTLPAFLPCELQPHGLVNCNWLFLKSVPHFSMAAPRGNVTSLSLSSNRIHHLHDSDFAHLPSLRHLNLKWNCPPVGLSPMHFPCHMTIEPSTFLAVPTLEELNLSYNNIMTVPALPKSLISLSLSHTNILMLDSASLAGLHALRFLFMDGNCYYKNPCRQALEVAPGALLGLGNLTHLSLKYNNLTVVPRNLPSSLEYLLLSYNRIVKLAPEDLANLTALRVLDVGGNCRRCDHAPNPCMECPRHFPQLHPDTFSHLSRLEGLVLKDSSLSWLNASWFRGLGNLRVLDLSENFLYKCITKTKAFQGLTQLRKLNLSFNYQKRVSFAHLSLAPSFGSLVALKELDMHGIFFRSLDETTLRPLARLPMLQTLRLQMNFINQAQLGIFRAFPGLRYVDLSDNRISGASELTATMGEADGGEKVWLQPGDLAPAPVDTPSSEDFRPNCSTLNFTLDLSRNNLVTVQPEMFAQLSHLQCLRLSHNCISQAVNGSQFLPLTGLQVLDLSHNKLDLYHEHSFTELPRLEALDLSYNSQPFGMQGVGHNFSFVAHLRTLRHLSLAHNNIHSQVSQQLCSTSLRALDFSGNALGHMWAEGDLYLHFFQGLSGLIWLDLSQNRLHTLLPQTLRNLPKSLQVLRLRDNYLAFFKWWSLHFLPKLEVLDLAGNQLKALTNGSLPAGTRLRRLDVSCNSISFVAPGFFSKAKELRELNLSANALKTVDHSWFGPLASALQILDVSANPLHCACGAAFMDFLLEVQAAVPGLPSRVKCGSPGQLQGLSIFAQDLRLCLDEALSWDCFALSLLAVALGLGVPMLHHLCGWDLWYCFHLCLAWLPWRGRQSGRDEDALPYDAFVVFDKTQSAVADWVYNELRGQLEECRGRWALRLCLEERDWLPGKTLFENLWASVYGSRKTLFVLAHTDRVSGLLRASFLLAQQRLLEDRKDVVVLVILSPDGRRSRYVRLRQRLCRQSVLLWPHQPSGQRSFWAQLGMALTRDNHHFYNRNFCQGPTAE
# How it was run: as §1
SMILES,IC50 (human TLR7) [nM],IC50 (human TLR8) [nM],IC50 (human TLR9) [nM]
"CC(C)c1c(-c2nc3c(N)ncnc3[nH]2)[nH]c2ccc(C3CCNCC3)cc12 [Example 8, 8-(3-isopropyl-5-(piperidin-4-yl)-1H-indol-2-yl)-9H-purin-6-amine]",100 to 1000,> 3130,1000 to 50000
"CCc1c(-c2cccc3[nH]ncc23)[nH]c2ccc(C3CCN(CC(=O)N(C)C)CC3)cc12 [Example 389, 2-(4-(3-ethyl-2-(1H-indazol-4-yl)-1H-indol-5-yl)piperidin-1-yl)-N,N-dimethylacetamide]",1000 to 50000,1000 to 50000,1000 to 50000
"Cc1cc2nnnn2cc1-c1[nH]c2ccc(C3CCN(CC(=O)N(C)C)CC3)cc2c1C(C)C [Example 314, 2-(4-(3-isopropyl-2-(7-methyltetrazolo[1,5-a]pyridin-6-yl)-1H-indol-5-yl)piperidin-1-yl)-N,N-dimethylacetamide]",< 100,< 100,1000 to 50000
"CNC(=O)CN1CCC(c2ccc3[nH]c(-c4ccnc5[nH]ncc45)c(CC(F)F)c3c2)CC1 [Example 387, 2-(4-(3-(2,2-difluoroethyl)-2-(1H-pyrazolo[3,4-b]pyridin-4-yl)-1H-indol-5-yl)piperidin-1-yl)-N-methylacetamide]",100 to 1000,< 100,1000 to 50000
"COc1cc(-c2[nH]c3ccc(C4CCN(CC(=O)N(C)C)CC4)cc3c2C(C)C)c2ccccc2n1 [Example 340, 2-(4-(3-isopropyl-2-(2-5 methoxyquinolin-4-yl)-1H-indol-5-yl)piperidin-1-yl)-N,N-dimethylacetamide]",< 100,100 to 1000,1000 to 50000
"Cc1cc(-c2[nH]c3ccc(C4CCN(CC(=O)N(C)C)CC4)cc3c2C(C)C)c2ccccc2n1 [Example 327, 2-(4-(3-isopropyl-2-(2-methylquinolin-4-yl)-1H-indol-5-yl)piperidin-1-yl)-N,N-dimethylacetamide]",< 100,< 100,1000 to 50000
"CC(C)c1c(-c2ccnc3[nH]ncc23)[nH]c2ccc(C3CCN(Cc4cn(C)cn4)CC3)cc12 [Example 906, 4-(3-isopropyl-5-(1-((1-methyl-1H-imidazol-4-yl)methyl)piperidin-4-yl)-1H-indol-2-yl)-1H-pyrazolo[3,4-b]pyridine]",< 100,< 100,100 to 1000
"CCc1c(-c2cc3cn(C)nc3cn2)[nH]c2ccc(C3CCNCC3)cc12 [Example 98, 5-(3-ethyl-5-(piperidin-4-yl)-1H-indol-2-yl)-2-methyl-2H-pyrazolo[3,4-c]pyridine]",1000 to 50000,100 to 1000,1000 to 50000
"CC(C)c1c(-c2cnc3nccn3c2)[nH]c2ccc(C3CCNCC3)cc12 [Example 200, 6-(3-isopropyl-5-(piperidin-4-yl)-1H-indol-2-yl)imidazo[1,2-a]pyrimidine]",100 to 1000,100 to 1000,100 to 1000
"CC(C)c1c(-c2cnc3[nH]nc(N)c3c2)[nH]c2ccc(C3CCNCC3)cc12 [Example 99, 5-(3-isopropyl-5-(piperidin-4-yl)-1H-indol-2-yl)-1H-pyrazolo[3,4-b]pyridin-3-amine]",100 to 1000,100 to 1000,1000 to 50000
"CC(C)c1c(-c2ccn3nccc3n2)[nH]c2ccc(C3CCN(CC(=O)N(C)C)CC3)cc12 [Example 425, 2-(4-(3-isopropyl-2-(pyrazolo[1,5-a]pyrimidin-5-yl)-1H-indol-5-yl)piperidin-1-yl)-N,N-dimethylacetamide]",100 to 1000,100 to 1000,1000 to 50000
"Cc1c(-c2ccnc3[nH]cc(C)c23)[nH]c2ccc(C3CCNCC3)cc12 [Example 4, 3-methyl-4-(3-methyl-5-(piperidin-4-yl)-1H-indol-2-yl)-1H-pyrrolo[2,3-b]pyridine]",100 to 1000,100 to 1000,100 to 1000
"CCc1c(C)c(-c2[nH]c3ccc(C4CCN(CC(=O)NC)CC4)cc3c2C(C)C)cn2ccnc12 [Example 418, 2-(4-(2-(8-ethyl-7-methylimidazo[1,2-a]pyridin-6-yl)-3-isopropyl-1H-indol-5-yl)piperidin-1-yl)-N-methylacetamide]",< 100,100 to 1000,1000 to 50000
"COc1cc(-c2[nH]c3ccc(C4CCNCC4)cc3c2C(C)C)cn2ccnc12 [Example 125, 6-(3-isopropyl-5-(piperidin-4-yl)-1H-indol-2-yl)-8-methoxyimidazo[1,2-a]pyridine]",< 100,< 100,100 to 1000
"CC(C)c1c(-c2ccc3cc[nH]c3c2)[nH]c2ccc(C3CCNCC3)cc12 [Example 65, 3-isopropyl-5-(piperidin-4-yl)-1H,1′H-2,6′-biindole]",1000 to 50000,1000 to 50000,1000 to 50000
"CC(C)c1c(-c2ccc3scnc3c2)[nH]c2ccc(C3CCNCC3)cc12 [Example 12, 5-(3-isopropyl-5-(piperidin-4-yl)-1H-indol-2-yl)benzo[d]thiazole]",100 to 1000,1000 to 50000,100 to 1000
